# Source: patent US20180271110A1, “REDUCTION OF MICROBIAL ACTIVITY AND METHOD OF PROCESSING ANIMAL AND POULTRY PRODUCTS” (Zee Company, priority 2017, published 2018)
# Like-named read-outs stand apart in the source and are kept apart here.
# Tests used:
# [1] = system: Salmonella Enterica serovar enteriditis (SE); experiment: Antimicrobial efficacy of DCDMH vs DBDMH on Salmonella-contaminated chicken legs and beef cubes (15 s agitation in solution); format: cell-based; conditions: for log Reduction Ave.: 15 s agitation, 15 s drip
# Method: In the following working example, a study was conducted to compare the antimicrobial efficacy of 1,3,-dichloro-5,5,-dimethylhydantoin (DCDMH) and 1,3,-dibromo-5,5,-dimethylhydantoin (DBDMH) at 200 ppm available chlorine on both chicken and beef test substrates. For sample preparation, chicken legs and beef cubes obtained from a local grocery store were used to conduct the following tests. Prior to exposure of the test substrates to the antimicrobial solutions having DCDMH or DBDMH, the test substrates were exposed for two hours in 300 mL of broth of Salmonella Enterica serovar enteriditis (SE), which had been grown to a concentration of >6 log 10 in Nutrient Broth for 2 h at 35° C. Following exposure, the test substrates were removed from the Nutrient Broth and allowed to drain and air dry for about 30 minutes at ambient room temperature before testing began.
# 1. The following solutions were prepared and distributed in 200 mL aliquots into Ziploc bags:
# a. 200 ppm available chlorine solutions derived from DCDMH distributed it into an appropriate number of Ziploc bags;
# b. FSIS new buffer solution containing Lecithin and Sodium thiosulfate (LST) into an appropriate number of Ziploc bags;
# c. Phosphate Buffer Solution (PBS) into an appropriate number of Ziploc bags.
# 2. Into each bag of DCDMH solution, a Salmonella-contaminated test substrate was placed and agitated manually for 15 s. The test substrate was removed from the bag, allowed to drip for 15 s, then placed into a Ziploc bag containing 200 mL LST. The bag was then vigorously shaken for 45 s to neutralize the DCDMH and to release SE from the surface of the chicken leg.
# 3. After the bags were shaken, 100 μL from each of the shaken bags was removed and dispensed into test tubes containing 9.9 mL of DI HOH. The contents of these tubes were used for serial dilution.
# 4. As controls, a prepared test substrate was inserted into each of two bags of PBS and agitated manually for 15 s. The substrate was removed from the bag and placed directly into a Ziploc bag containing 200 mL LST. The bag was vigorously shaken for 45 s to release SE from the surface of the substrate.
# 5. Repeat Step 3 with the control solutions.
# 6. Serially dilute the contents of the test tubes from Step 3 above. Plate 100 μL aliquots on Salmonella-Shigella Agar (SSA), then incubate for 18-24 h at 35° C. Enumerate colonies that have black centers (presumptive SE) after incubation.
# 7. Repeat the entire protocol replacing the DCDMH solution with […] solution in Step 1.a.
# [2] = system: Salmonella Enterica serovar enteriditis (SE)
# Method: In the following working example, a study was conducted to compare the antimicrobial efficacy of 1,3,-dichloro-5,5,-dimethylhydantoin (DCDMH) at various concentrations (100 ppm, 200 ppm, and 400 ppm) on beef test substrates from beef brisket and beef liver. For sample preparation, beef brisket and beef liver were cubed to have approximately […] of exposed surface. Prior to exposure of the test substrates to the antimicrobial solutions having DCDMH, the test substrates were incubated for two hours in 300 mL of broth of Salmonella Enterica serovar enteriditis (SE), which had been grown to a concentration of >6 log 10 in Nutrient Broth for 2 h at 35° C. Following exposure, the test substrates were removed from the Nutrient Broth and allowed to drain and air dry for about 30 minutes at ambient room temperature before testing began. The test was replicated 10 times for each concentration and two controls. The concentration of DCDMH was then tested on the exposed test substrates using spray and dip applications.
# 1. A test substrate cube was suspended on a stainless steel hook and the antimicrobial solution was atomized onto the cube to thoroughly cover all sides until solution was dripping from the test substrate cube, which was for about 5 to about 10 seconds;
# 2. The test substrate cube was allowed to drip for about 10 to about 50 seconds (to obtain total antimicrobial contact times of about 15 to about 60 seconds when combined with the exposure in step 1 above).
# 3. The test substrate cube was then placed in a Ziploc bag containing 100 mL of LST solution to neutralize any residual antimicrobial chemistry;
# (§1) 4. The Ziploc bag containing the test substrate cube was then vigorously shaken for about for 45 seconds to release bacterial cells from the surface of the meat into the LST solution;
# (§2) 5. A 100 μL aliquot of LST solution from the bag was injected into 9.9 mL of sterile phosphate buffer solution;
# (§3) 6. The LST solution was serially diluted, then plated on Salmonella Shigella agar and incubated for 24 h prior to counting presumptive positive Salmonella colonies;
# (§4) 7. This procedure was repeated at each concentration of DCDMH;
# 8. For controls, 2 cubes of each test substrate were treated as in steps 1-2 above, except the control substrate cubes were atomized with sterile deionized water in step 1 above. And then steps 2-6 of the process above were continued.
# 1. A test substrate cube was placed in a Ziploc bag containing 100 mL of the antimicrobial solution and allowed to remain in the solution for about 15 to about 30 seconds under gentle manual agitation;
# 2. The test substrate cube was removed from the test solution using sterile forceps and allowed to drip for about 0 to about 30 seconds (to obtain total antimicrobial contact times of about 15 to about 60 seconds when combined with the exposure in step 1 above);
# 8. For controls, 2 cubes of each test substrate were treated as in steps 1-2 above, except the control substrate cubes were placed in 100 mL Ziploc bags of phosphate buffer solution in step 1 above. And then steps 2-6 of the process above were continued.
# [3] = system: Salmonella Enterica serovar enteriditis (SE); remark: listed apart in the source
# Method: In the following working example, a study was conducted to compare the antimicrobial efficacy of 1,3,-dichloro-5,5,-dimethylhydantoin (DCDMH) at various concentrations (50 ppm, 100 ppm, and 200 ppm) on chicken test substrates, namely, chicken legs and chicken liver. Prior to exposure of the test substrates to the antimicrobial solutions having DCDMH, the test substrates were incubated for two hours in 1000 mL of broth of Salmonella Enterica serovar enteriditis (SE), which had been grown to a concentration of >6 log 10 in Nutrient Broth for 2 h at 35° C. Following exposure, the test substrates were removed from the Nutrient Broth and allowed to drain and air dry for about 30 minutes at ambient room temperature before testing began. The test was replicated 10 times for each concentration and two controls. The concentration of DCDMH was then tested on the exposed test substrates using spray and dip applications.
# 1. A test poultry product (e.g., chicken leg or chicken liver) was suspended on a stainless steel hook in a spray cabinet and sprayed until the part was drenched with antimicrobial solution, which was for about 5 to about 10 seconds;
# 2. The test poultry product was allowed to drip for about 10 to about 50 seconds (to obtain total antimicrobial contact times of about 15 to about 60 seconds when combined with the exposure in step 1 above);
# 3. The test poultry product was then placed in a Ziploc bag containing 200 mL of LST solution to neutralize any residual antimicrobial chemistry;
# 4. The Ziploc bag containing the test poultry product was then vigorously shaken for about for 45 seconds to release bacterial cells from the surface of the poultry product into the LST solution;
# as §2
# 6. The LST solution was serially diluted, then plated on Salmonella Shigella agar and incubated for 24-36 hours prior to counting presumptive positive Salmonella colonies;
# as §4
# 8. For controls, 2 poultry legs and 2 poultry livers for the corresponding test were treated as in steps 1-2 above, except the control poultry products were drenched with sterile deionized water in step 1 above. And then steps 2-6 of the process above were continued.
# 1. A test poultry product was placed in a Ziploc bag containing 200 mL of the antimicrobial solution and allowed to remain in the solution for about 15 to about 30 seconds under gentle manual agitation;
# 2. The test poultry product was removed from the test solution using sterile forceps and allowed to drip for about 0 to about 30 seconds (to obtain total antimicrobial contact times of about 15 to about 60 seconds when combined with the exposure in step 1 above);
# 3. The test poultry product was then placed in a Ziploc bag containing 200 mL broth of LST solution to neutralize any residual antimicrobial chemistry;
# as §1, §3
# 8. For controls, 2 poultry legs and 2 poultry liver for each test were treated as in steps 1-2 above, except the test substrate cubes were placed in 200 mL Ziploc bags of phosphate buffer solution in step 1 above. And then steps 2-6 of the process above were continued.
# [4] = beef test substrate, 200 ppm available chlorine
# [5] = chicken test substrate, 200 ppm available chlorine
Structure (SMILES),"log Reduction Ave. [1, 4]","log Reduction Ave. [1, 5]","Ave. Log Reduction ([2]; Beef Liver, Active Cl 100 ppm, Dip, 60 seconds)","Ave. Log Reduction ([2]; Beef Liver, Active Cl 200 ppm, Spray, 30 seconds)","Ave. Log Reduction ([2]; Beef Liver, Active Cl 400 ppm, Dip, 15 seconds)","Ave. Log Reduction ([2]; Beef Muscle, Active Cl 100 ppm, Dip, 60 seconds)","Ave. Log Reduction ([2]; Beef Muscle, Active Cl 200 ppm, Spray, 30 seconds)","Ave. Log Reduction ([2]; Beef Muscle, Active Cl 400 ppm, Dip, 15 seconds)","antimicrobial efficacy against S. Enteritidis ([2]; about 100 ppm to about 400 ppm, dip or spray application, beef substrates)","anticipated efficacy (log reduction) under normal in-plant use conditions ([2]; normal in-plant use conditions, about 100 to about 400 ppm, dip or spray, anticipated)","Ave. Log Reduction ([3]; Chicken Leg, Active Cl 50 ppm, Dip, 60 seconds)","Ave. Log Reduction ([3]; Chicken Leg, Active Cl 100 ppm, Spray, 30 seconds)","Ave. Log Reduction ([3]; Chicken Leg, Active Cl 200 ppm, Dip, 15 seconds)","Ave. Log Reduction ([3]; Chicken Liver, Active Cl 50 ppm, Dip, 60 seconds)","Ave. Log Reduction ([3]; Chicken Liver, Active Cl 100 ppm, Spray, 30 seconds)","Ave. Log Reduction ([3]; Chicken Liver, Active Cl 200 ppm, Dip, 15 seconds)","antimicrobial efficacy against S. Enteritidis ([3]; about 50 ppm to about 200 ppm, dip or spray application, poultry products)","anticipated efficacy (log reduction) under normal in-plant use conditions ([3]; normal in-plant use conditions, about 50 to about 200 ppm, dip or spray, anticipated)","antimicrobial efficacy against S. Enteritidis compared with DBDMH ([1]; 200 ppm available chlorine, chicken and beef, short contact time)","anticipated efficacy (log reduction) under normal in-plant use conditions ([1]; normal in-plant use conditions, anticipated)"
"CC1(C)C(=O)N(Br)C(=O)N1Br [DBDMH, 1,3,-dibromo-5,5,-dimethylhydantoin, reference compound]",0.15 log,0.29 log,,,,,,,,,,,,,,,,,,
"CC1(C)C(=O)N(Cl)C(=O)N1Cl [DCDMH, 1,3,-dichloro-5,5,-dimethylhydantoin]",0.51 log,0.64 log,0.90 log,1.01 log,1.11 log,0.89 log,0.91 log,1.18 log,great antimicrobial efficacy,> 1 log,0.78 log,0.86 log,1.22 log,0.69 log,0.72 log,1.07 log,great antimicrobial efficacy,> 1 log,substantially greater antimicrobial efficacy,> 1 log
